# Source: article PMC4996985, “Sequence-Based Screening for Rare Enzymes: New Insights into the World of AMDases Reveal a Conserved Motif and 58 Novel Enzymes Clustering in Eight Distinct Families” (Frontiers in Microbiology, 2016)
# Molecular target: T1, AmdP (Polymorphum gilvum, UniProt F2IXG8)
# T1 construct: gene SL003B_3169; full length, 744 bp codon-adapted synthetic gene, pET-21a NdeI/XhoI, C-terminal His6 tag kept, E. coli BL21, Ni-NTA purified
# T1 sequence (F2IXG8 1-247): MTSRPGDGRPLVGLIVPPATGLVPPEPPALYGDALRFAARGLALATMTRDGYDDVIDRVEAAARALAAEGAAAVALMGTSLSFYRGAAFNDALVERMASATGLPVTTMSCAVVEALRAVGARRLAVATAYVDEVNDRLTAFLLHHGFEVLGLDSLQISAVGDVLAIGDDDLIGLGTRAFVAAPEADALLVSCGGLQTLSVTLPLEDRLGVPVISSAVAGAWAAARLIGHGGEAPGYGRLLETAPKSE
# Test: chiral GC of product after derivatisation
# Type: biochemical
# Details: 10 mM substrate, 50 mM Tris pH 7.5; substrate contained <4% racemic flurbiprofen
smiles,measurement,value
"CC(C(=O)O)(C(=O)O)c1ccc(-c2ccccc2)c(F)c1 [2a, flurbiprofen malonate]",chiral GC of product after derivatisation,selectivity of all three AMDases was analyzed with aryl malonic acid derivates
